# From patent US10842796B2, “Treatment of dementia” (WisTa Laboratories Ltd., priority 2016, dated 2020)
# Read-outs that look alike come from different tables or passages of the source.
# Key:
# [1] = compatibility of LMTM tablets with AD treatments (HPLC recovery of LMT and MT); type: physicochemical
# Method: The effect of combining tablets of galantamine, memantine, donepezil or rivastigmine independently with LMTM was studied and LMTM was analysed in the resultant mixture.
# One LMTM tablet (100 mg) was added to a degassed 200 ml amber volumetric flask along with one prescription dose of each of the test drugs, as indicated in the table below, and 100 ml of diluent (degassed 0.1% formic acid). Flasks were given an argon headspace and shaken on a wrist action shaker for 40 minutes at 250 oscillations/min. Samples were then diluted to the graduation mark with diluent, given an argon headspace and inverted to mix. Subsamples of the resulting solution were centrifuged at 13,000 rpm for 5 minutes to remove any undissolved excipients and the supernatant placed in an amber HPLC vial and injected into a high performance liquid chromatography (HPLC) system (Agilent 1260) to separate LMT and MT. LMT and MT peaks were identified by absorbance at 255 nm with retention times of 5.5 and 14 minutes, respectively (FIG. 11).
# [2] = 14-day and 25-day repeat-dose studies in healthy volunteers (discoloration); type: in vivo, human; settings: 4 mg BID lowest dose with comparable discoloration
# [3] = test system: behavioural variant frontotemporal dementia (bvFTD); settings: for ACE-R treatment effect mean (se) / FAQ treatment effect mean (se) / Fronto-temporal volume treatment effect mean (se): wrt 4 mg b.i.d. alone
# Method: (1) Addenbrooke's Cognitive Examination—revised (ACE-R) and (2) Functional Activities Questionnaire [FAQ] or MRI (with Bonferroni Holme correction)
# The effect of co-medication with symptomatic AD treatments which modify synaptic neurotransmission in the brain (acetylcholinesterase inhibitors or the NMDA antagonist “memantine”) was assessed. For brevity these treatments may be referred to as “AChEI/Mem” below.
# TDP-43 aggregates = settings: 0.05 μM MT; SH-SYSY cells; cited from earlier work
# [4] = 100 mg LMTM + 6 mg rivastigmine
# [5] = 100 mg LMTM + 12 mg galantamine
# [6] = 100 mg LMTM tablet, no addition, HPLC 255 nm
# [7] = 4 mg b.i.d. versus 100 mg b.i.d.
# [8] = ANCOVA model, 4 mg b.i.d. as add-on to AChEI/Mem
# [9] = ANCOVA model, 100 mg b.i.d. alone
# [10] = ANCOVA model, 100 mg b.i.d. as add-on to AChEI/Mem
# [11] = MMRM model, 4 mg b.i.d. as add-on to AChEI/Mem
# [12] = MMRM model, 100 mg b.i.d. alone
# [13] = MMRM model, 100 mg b.i.d. as add-on to AChEI/Mem
compound,measurement,setting,value
"CN(C)c1ccc2c(c1)Sc1cc(N(C)C)ccc1N2 [LMTM, leuco-methylthioninium bis(hydromethanesulfonate)]",LMT (% difference from control*),[1]; [4],5.64%
same,LMT (area),[1]; [4],23302.4 area
same,MT (% difference from control*),[1]; [4],2.14%
same,MT (area),[1]; [4],320.6 area
same,LMT (% difference from control*),[1]; 100 mg LMTM + 10 mg donepezil,−2.58%
same,LMT (area),[1]; 100 mg LMTM + 10 mg donepezil,22058.4 area
same,MT (% difference from control*),[1]; 100 mg LMTM + 10 mg donepezil,−6.58%
same,MT (area),[1]; 100 mg LMTM + 10 mg donepezil,313.9205 area
same,LMT (% difference from control*),[1]; 100 mg LMTM + 10 mg memantine,2.19%
same,LMT (area),[1]; 100 mg LMTM + 10 mg memantine,22642.3 area
same,MT (% difference from control*),[1]; 100 mg LMTM + 10 mg memantine,1.10%
same,MT (area),[1]; 100 mg LMTM + 10 mg memantine,336 area
same,LMT (% difference from control*),[1]; [5],−1.37%
same,LMT (area),[1]; [5],22157.4 area
same,MT (% difference from control*),[1]; [5],−14.90%
same,MT (area),[1]; [5],332.3 area
same,LMT (area),[1]; [6],22465.7 area
same,MT (area),[1]; [6],390.5473 area
same,amount of oxidised MT after mixing,[1]; after mixing with any of the AChEIs or memantine,not increased
same,LMTM found in the oxidised form,[1]; following HPLC analysis,Less than 2%
same,urine and stool discoloration,[2],associated with urine and stool discoloration
same,decline on ACE-R and MMSE compared with historical controls,[3]; 4 mg b.i.d. and 100 mg b.i.d.,significantly less than historical controls
same,"ADCS-CGIC, FRS, MMSE, UPDRS (safety outcome)",[3]; [7],no difference
same,"primary analysis models for ACE-R, FAQ and Whole Brain Volume",[3]; [7],no difference
same,"12 m change in MMSE (decline), present study",[3]; 4 mg bd,3.4 ± 0.5
same,"12 month change in ACE-R (decline), present study",[3]; 4 mg bd,10.4 ± 1.4
same,"12 m change in MMSE (decline), present study",[3]; 100 mg bd,3.0 ± 0.7
same,"12 month change in ACE-R (decline), present study",[3]; 100 mg bd,10.7 ± 1.4
same,ACE-R treatment effect mean (se),[3]; [8],6.52 (2.42)
same,FAQ treatment effect mean (se),[3]; [8],2.15 ± 1.21
same,Fronto-temporal volume treatment effect mean (se),[3]; [8],356 (237)
same,ACE-R treatment effect mean (se),[3]; [9],1.35 (1.71)
same,FAQ treatment effect mean (se),[3]; [9],−0.11 ± 0.87
same,Fronto-temporal volume treatment effect mean (se),[3]; [9],−98 (173)
same,ACE-R treatment effect mean (se),[3]; [10],9.69 (2.73)
same,FAQ treatment effect mean (se),[3]; [10],1.90 ± 1.37
same,Fronto-temporal volume treatment effect mean (se),[3]; [10],481 (258)
same,ACE-R treatment effect mean (se),[3]; [11],7.17 ± 3.25
same,FAQ treatment effect mean (se),[3]; [11],2.08 ± 1.31
same,Fronto-temporal volume treatment effect mean (se),[3]; [11],240 (291)
same,ACE-R treatment effect mean (se),[3]; [12],−1.12 ± 2.28
same,FAQ treatment effect mean (se),[3]; [12],−0.03 ± 0.92
same,Fronto-temporal volume treatment effect mean (se),[3]; [12],−4 (207)
same,ACE-R treatment effect mean (se),[3]; [13],5.65 ± 3.57
same,FAQ treatment effect mean (se),[3]; [13],2.36 ± 1.45
same,Fronto-temporal volume treatment effect mean (se),[3]; [13],278 (313)
same,safety profile,[3]; data not shown,raised no major concerns
same,"FAQ, MMSE and fronto-temporal volume, LMTM in combination with AD treatments versus LMTM alone",[3]; post hoc exploratory analyses,directionally supportive benefits
same,"ACE-R, LMTM in combination with off-label AD treatments (AChEI/Mem) versus LMTM alone",[3]; post hoc exploratory analyses with AD-comedication status and severity as covariates,significant benefits
Methylthioninium [MT],reduction of number of intracellular TDP-43 aggregates,TDP-43 aggregates,50%
